Read-outs that look alike come from different tables or passages of the source.
Columns and labels:
[1] = Chemical stability test in human plasma (enzymatic hydrolysis, HPLC-MS/MS); assay type: in vitro ADME; conditions: for LEDA195–221 k ± 2SD (degradation rate): LEDA195–221 matrix (Table S4); for behaviour towards plasma enzymes (hydrolysis or stable) / half-life at 1 µM: human plasma; for behaviour towards plasma enzymes (hydrolysis or stable): all sample sets (pure isomer and mixture), up to 120 min at 37 °C; for half-life at 1 µM: human
Method: The present investigation was carried out to evaluate the variation of hydrolytic activity of the human plasma enzymatic system when two potential substrates were simultaneously present. […] Therefore, the human plasma sample solutions, prepared with a mixture of isomers, presented both a substrate and a potential interference, which could influence the enzyme functionality. To correctly monitor this process, it must be possible to distinguish each isomer present in the sample, quantify it with the proper calibration curve and plot its degradation profile. The LEDA algorithm was used to support this investigation and to test its quali-quantitative ability in a complex matrix of human plasma samples. The experimental plan involved the analysis of three series of human plasma samples for each couple of isomers: two series of samples were added to a pure isomer, to check the activity of the plasma enzyme system without interferences, and the last series of samples were spiked with the equimolar mixture of isomers. The series of samples were prepared, as described in Section 4.6 and analyzed with the proper HPLC-MS/MS method. The acquired data were processed with the conventional quantitative method for the series containing the single isomers, and with the LEDA approach for the samples spiked with the mixture of isomers. The samples containing a single isomer were worked out by the integration of quantitative Pi signal and the estimation of PAR value by dividing with IS abundance, and quantitative determination of the analyte in the sample was obtained by using the proper calibration curve. In contrast, in the samples spiking with the mixture of isomers, each proposed LEDA matrix recognized the relative concentration of the isomers present in the sample. Therefore, their abundance in the precursor ion signal (or Ri signal) were assigned, each PAR value calculated by dividing with the IS abundance, and quantitative determination of the analytes in the sample were performed by using the respective precursor ion calibration curve. In Figure 6, an example of the degradation plots of the mixtures of the ELF94 and ELF96 isomers is shown, while all the degradation profiles are reported in the Supplementary Material (Figures S20–S25).
Each sample was prepared by adding 10 µL of proper spiked solution to 100 µL of human plasma matrix in a 1.5 mL microcentrifuge tube. The obtained solution corresponds to 1 μM of analyte that undergo degradation study. Each set of samples was prepared in triplicate and incubated for four different times: 0, 30, 60, and 120 min at 37 °C. Therefore, each stability panel of studied analyte was represented by a batch of 12 samples (4 incubation times, 3 replicates). After the incubation, 300 µL of IS solution was added to the sample and then centrifuged (room temperature for 5 min at 800× g). Then, the supernatant was transferred to autosampler vials, dried under a gentle stream of nitrogen and dissolved in 1.0 mL of 10 mM of formic acid in mQ water:acetonitrile 80:20 solution [23, 24, 25, 27, 28, 29, 30]. Each sample batch included the blank samples of human plasma matrix, prepared as described above, with the addition only of the IS solution. Thus, the analysis of the blank samples can check any interference in the analyte MRM signals due to the matrix components. Three sets of six replicates for each analyte were prepared to evaluate the matrix effect (ME) and the analyte recovery (RE) of the proposed method. The same evaluation was extended to the IS to verify its reliability as a quantitative reference. Set A was prepared by mixing 10 µL of spiked solution with 300 µL of IS solution. Set B was obtained by mixing 100 µL of plasma with 300 µL of acetonitrile and, after centrifugation and separation of the supernatant, by adding 10 µL of spiked solution to each analyte or 300 µL of IS solution. […]

[2] = design: method as in PMID 27882889, PMID 29536775, PMID 35753165, PMID 30947123; conditions: check of hydrolytic activity of the plasma pool; own degradation plot comparable to literature value; cited from earlier work
[3] = human plasma spiked with equimolar mixture of the isomer pair, 1 μM each, 37 °C, LEDA195–221 matrix
[4] = human plasma spiked with isomers mixture
[5] = human plasma spiked with isomers mixture, LEDAall matrix (Table S4)
[6] = human plasma spiked with the pure isomer, 1 μM, 37 °C, 0-120 min, conventional quantitative processing
[7] = human plasma spiked with equimolar mixture of the isomer pair, 1 μM each, 37 °C, LEDA195–221 matrix, read-out: Mix t1/2 ± 2SD
[8] = human plasma spiked with isomers mixture, LEDAall matrix (Table S4), read-out: LEDAall t1/2 ± 2SD
[9] = human plasma spiked with the pure isomer, 1 μM, 37 °C, 0-120 min, conventional quantitative processing, read-out: Pure Isomer t1/2 ± 2SD

| SMILES | Mix k ± 2SD (degradation rate) [1, 3] | LEDA195–221 k ± 2SD (degradation rate) [1, 4] | LEDAall k ± 2SD (degradation rate) [1, 5] | Pure Isomer k ± 2SD (degradation rate) [1, 6] | behaviour towards plasma enzymes (hydrolysis or stable) [1] | half-life at 1 µM [1, 7] [min] | half-life at 1 µM [1, 8] [min] | half-life at 1 µM [1, 9] [min] | t1/2 of the reference compound in human plasma [2] [min] |
| --- | --- | --- | --- | --- | --- | --- | --- | --- | --- |
| COc1cc(/C=C/C(=O)OCCCCCCN(C)CCCOC(=O)c2cc(OC)c(OC)c(OC)c2)cc(OC)c1OC [ELF96] | <0.006 ln(μM)/min | < 0.006 ln(M)/min | < 0.006 ln(M)/min | <0.006 ln(μM)/min | remained constant | > 120 | > 120 | > 120 | – |
| CCOC(=O)C(C)c1cccc(C(=O)c2ccccc2)c1 (stereo not drawn) [KEE, Ketoprofen ethyl ester] | – | – | – | – | – | – | – | – | ≤ 120 |
| COc1cc(/C=C/C(=O)OCCCN(C)CCCCCCOC(=O)c2cc(OC)c(OC)c(OC)c2)cc(OC)c1OC [ELF94] | −0.023 ± 0.005 ln(μM)/min | −0.023 ± 0.005 ln(M)/min | −0.023 ± 0.003 ln(M)/min | −0.014 ± 0.001 ln(μM)/min | hydrolysis | 34 ± 14 | 34 ± 15 | 49 ± 18 | – |

The next lines start with results.

| Mix k ± 2SD (degradation rate) [1, 3] | LEDA195–221 k ± 2SD (degradation rate) [1, 4] | LEDAall k ± 2SD (degradation rate) [1, 5] | Pure Isomer k ± 2SD (degradation rate) [1, 6] | behaviour towards plasma enzymes (hydrolysis or stable) [1] | half-life at 1 µM [1, 7] [min] | half-life at 1 µM [1, 8] [min] | half-life at 1 µM [1, 9] [min] | SMILES | t1/2 of the reference compound in human plasma [2] [min] |
| --- | --- | --- | --- | --- | --- | --- | --- | --- | --- |
| <0.006 ln(μM)/min | < 0.006 ln(M)/min | < 0.006 ln(M)/min | <0.006 ln(μM)/min | remained constant | > 120 | > 120 | > 120 | COc1cc(/C=C/C(=O)OCCCCCN(C)CCCOC(=O)c2cc(OC)c(OC)c(OC)c2)cc(OC)c1OC [GDE5] | – |
| −0.019 ± 0.003 ln(μM)/min | −0.019 ± 0.003 ln(M)/min | −0.019 ± 0.005 ln(M)/min | −0.017 ± 0.001 ln(μM)/min | hydrolysis | 32 ± 18 | 32 ± 19 | 43 ± 16 | COc1cc(/C=C/C(=O)OCCCN(C)CCCCCOC(=O)c2cc(OC)c(OC)c(OC)c2)cc(OC)c1OC [FRA76] | – |

Source: paper PMC9653966, “Simultaneous Degradation Study of Isomers in Human Plasma by HPLC-MS/MS and Application of LEDA Algorithm for Their Characterization” (International Journal of Molecular Sciences, 2022)
